# Reference: PMC3113701 (Nature communications, 2010)
# Entries after “also recorded” stand apart in the source; their conditions may differ. Like-named read-outs stand apart in the source and are kept apart here.
# How the values were obtained:
# NR1/NR2C receptors [1] = molecular target: T1, NR1/NR2C receptors (Rattus norvegicus, UniProt Q00961); assay: Two-electrode voltage-clamp, recombinant NR1/NR2C in Xenopus oocytes; format: cell-based; conditions: for Slope: Control (no CIQ)
# NR1/NR2D receptors [2] = molecular target: T2, NR1/NR2D receptors (Rattus norvegicus, UniProt Q62645); assay: Two-electrode voltage-clamp, recombinant NR1/NR2D in Xenopus oocytes; format: cell-based; conditions: for Slope: Control (no CIQ)
# NR1/NR2A receptors [3] = assay: Two-electrode voltage-clamp, recombinant NR1/NR2A in Xenopus oocytes; format: cell-based, rat
# NR1/NR2B receptors [4] = assay: Two-electrode voltage-clamp, recombinant NR1/NR2B in Xenopus oocytes; format: cell-based, rat
# AMPA (GluR1) receptor = assay: Two-electrode voltage-clamp, AMPA receptor GluR1 in oocytes; format: cell-based; conditions: 10 μM CIQ, 100 μM glutamate
# GluR2 receptor = assay: Two-electrode voltage-clamp, GluR2 in oocytes; format: cell-based; conditions: 10 μM CIQ, 100 μM glutamate
# GluR3 receptor = assay: Two-electrode voltage-clamp, GluR3 in oocytes; format: cell-based; conditions: 10 μM CIQ, 100 μM glutamate
# GluR4 receptor = assay: Two-electrode voltage-clamp, GluR4 in oocytes; format: cell-based; conditions: 10 μM CIQ, 100 μM glutamate
# GluR5 receptor = assay: Two-electrode voltage-clamp, GluR5 in oocytes; format: cell-based; conditions: 10 μM CIQ; 100 μM glutamate; concanavalin-A pretreated oocytes
# kainate (GluR6) receptor = assay: Two-electrode voltage-clamp, kainate receptor GluR6 in oocytes; format: cell-based; conditions: 10 μM CIQ; 100 μM glutamate; concanavalin-A pretreated oocytes
# NR1/NR2C receptors [5] = molecular target: NR1/NR2C receptors (Rattus norvegicus, UniProt P35439+Q00961); assay: Whole-cell voltage-clamp, NR1/NR2C in HEK 293 cells; format: cell-based
# NR1/NR2C receptors [6] = molecular target: T1, NR1/NR2C receptors; assay: as above; format: cell-based
# NR1/NR2D receptors [7] = molecular target: T2, NR1/NR2D receptors; assay: Whole-cell voltage-clamp, NR1/NR2D in HEK 293 cells; format: cell-based
# NR1/NR2A receptors [8] = assay: Whole-cell voltage-clamp, NR1/NR2A in HEK 293 cells; format: cell-based, rat; conditions: concentration-effect relationship
# NR1/NR2B receptors [9] = assay: Whole-cell voltage-clamp, NR1/NR2B in HEK 293 cells; format: cell-based, rat; conditions: 20 μM CIQ
# NR1/NR2D receptors [10] = molecular target: T2, NR1/NR2D receptors; assay: Single channel recording, outside-out patches with NR1/NR2D; format: cell-based; conditions: 10 μM CIQ
# [11] = tested on: NR2A-(2D L+M1e) chimeric receptor; assay: Oocyte recording of chimera NR2A-; format: cell-based, rat; conditions: 10 μM CIQ plus 100 μM glutamate and 30 μM glycine
# [12] = tested on: NR2A with ATD-S1 linker (L) of NR2D; assay: Oocyte recording of NR2A with NR2D ATD-S1 linker; format: cell-based, rat; conditions: oocytes
# [13] = tested on: NR2A with residues 590-594 of NR2D; assay: Oocyte recording of NR2A with NR2D residues 590-594 alone; format: cell-based, rat; conditions: oocytes
# [14] = tested on: 2D-(2A L) chimeric receptor; assay: Oocyte recording of chimera 2D-; format: cell-based, rat; conditions: oocytes
# [15] = tested on: 2D-(2A ATD+L) chimeric receptor; assay: Oocyte recording of chimera 2D-; format: cell-based, rat; conditions: oocytes
# NR1/NR2D(T592I) = assay: Oocyte recording of mutant NR1/NR2D; format: cell-based, rat; conditions: oocytes
# [16] = tested on: NR2A(I567T) with linker (L) between NR2D ATD and S1; assay: Oocyte recording of NR2A; format: cell-based, rat; conditions: 10 μM CIQ; oocytes
# [17] = tested on: native NMDA receptors in subthalamic neurons; format: cell-based, rat
# [18] = tested on: native NMDA receptors in CA1 hippocampal pyramidal neurons; format: cell-based, rat; conditions: 20 μM CIQ; pressure-applied NMDA and glycine
# [19] = Maximum solubility by nephelometer; format: physicochemical; conditions: kinetic from dmso stock
# [20] = tested on: NMDA receptors containing the NR2C or NR2D subunit; assay: Potentiation of NR2C- or NR2D-containing NMDA receptors; format: cell-based; conditions: read-out: EC50 for enhancement of receptor responses; abstract summary value
# [21] = tested on: 2A-(2D L+S1M1M2M3S2) chimeric receptor; assay: Oocyte recording of chimera 2A-; format: cell-based, rat; conditions: 10 μM CIQ plus 100 μM glutamate and 30 μM glycine
# [22] = tested on: 2A-(2D L+S1M1) chimeric receptor; assay: Oocyte recording of chimera 2A-; format: cell-based, rat; conditions: 10 μM CIQ plus 100 μM glutamate and 30 μM glycine
# [23] = tested on: 2A-(2D L+S1M1b) chimeric receptor; assay: Oocyte recording of chimera 2A-; format: cell-based, rat; conditions: 10 μM CIQ plus 100 μM glutamate and 30 μM glycine
# [24] = tested on: 2A-(2D L+S1M1c) chimeric receptor; assay: Oocyte recording of chimera 2A-; format: cell-based, rat; conditions: 10 μM CIQ plus 100 μM glutamate and 30 μM glycine
# NR1/NR2A* receptors = assay: Oocyte recording of NR1/NR2A*; conditions: oocytes; triheteromeric recording conditions
# [25] = tested on: NR1/NR2A*/NR2B triheteromeric receptors; assay: Triheteromeric NMDA receptors in oocytes, NR1/NR2A*/NR2B; conditions: 10 μM CIQ; 10 mM glutamate, 100 μM glycine, 1 mM Mg2+
# [26] = tested on: NR1/NR2A*/NR2C triheteromeric receptors; assay: Triheteromeric NMDA receptors in oocytes, NR1/NR2A*/NR2C; conditions: 10 μM CIQ; 10 mM glutamate, 100 μM glycine, 1 mM Mg2+
# [27] = tested on: NR1/NR2A*/NR2D triheteromeric receptors; assay: Triheteromeric NMDA receptors in oocytes, NR1/NR2A*/NR2D; conditions: 10 μM CIQ; 10 mM glutamate, 100 μM glycine, 1 mM Mg2+
# [28] = 10 μM CIQ plus 100 μM glutamate and 30 μM glycine
# [29] = 10 μM CIQ in 100 μM glutamate and 30 μM glycine, HEK 293, 23°C
# [30] = HEK 293 cells, single exponential
# [31] = following pre-application of CIQ, HEK 293
# [32] = read-out: agonist EC50, + 20 μM CIQ
# [33] = read-out: agonist EC50, Control (no CIQ)
# T2 sequence (Q62645 28-1323, other chains not shown): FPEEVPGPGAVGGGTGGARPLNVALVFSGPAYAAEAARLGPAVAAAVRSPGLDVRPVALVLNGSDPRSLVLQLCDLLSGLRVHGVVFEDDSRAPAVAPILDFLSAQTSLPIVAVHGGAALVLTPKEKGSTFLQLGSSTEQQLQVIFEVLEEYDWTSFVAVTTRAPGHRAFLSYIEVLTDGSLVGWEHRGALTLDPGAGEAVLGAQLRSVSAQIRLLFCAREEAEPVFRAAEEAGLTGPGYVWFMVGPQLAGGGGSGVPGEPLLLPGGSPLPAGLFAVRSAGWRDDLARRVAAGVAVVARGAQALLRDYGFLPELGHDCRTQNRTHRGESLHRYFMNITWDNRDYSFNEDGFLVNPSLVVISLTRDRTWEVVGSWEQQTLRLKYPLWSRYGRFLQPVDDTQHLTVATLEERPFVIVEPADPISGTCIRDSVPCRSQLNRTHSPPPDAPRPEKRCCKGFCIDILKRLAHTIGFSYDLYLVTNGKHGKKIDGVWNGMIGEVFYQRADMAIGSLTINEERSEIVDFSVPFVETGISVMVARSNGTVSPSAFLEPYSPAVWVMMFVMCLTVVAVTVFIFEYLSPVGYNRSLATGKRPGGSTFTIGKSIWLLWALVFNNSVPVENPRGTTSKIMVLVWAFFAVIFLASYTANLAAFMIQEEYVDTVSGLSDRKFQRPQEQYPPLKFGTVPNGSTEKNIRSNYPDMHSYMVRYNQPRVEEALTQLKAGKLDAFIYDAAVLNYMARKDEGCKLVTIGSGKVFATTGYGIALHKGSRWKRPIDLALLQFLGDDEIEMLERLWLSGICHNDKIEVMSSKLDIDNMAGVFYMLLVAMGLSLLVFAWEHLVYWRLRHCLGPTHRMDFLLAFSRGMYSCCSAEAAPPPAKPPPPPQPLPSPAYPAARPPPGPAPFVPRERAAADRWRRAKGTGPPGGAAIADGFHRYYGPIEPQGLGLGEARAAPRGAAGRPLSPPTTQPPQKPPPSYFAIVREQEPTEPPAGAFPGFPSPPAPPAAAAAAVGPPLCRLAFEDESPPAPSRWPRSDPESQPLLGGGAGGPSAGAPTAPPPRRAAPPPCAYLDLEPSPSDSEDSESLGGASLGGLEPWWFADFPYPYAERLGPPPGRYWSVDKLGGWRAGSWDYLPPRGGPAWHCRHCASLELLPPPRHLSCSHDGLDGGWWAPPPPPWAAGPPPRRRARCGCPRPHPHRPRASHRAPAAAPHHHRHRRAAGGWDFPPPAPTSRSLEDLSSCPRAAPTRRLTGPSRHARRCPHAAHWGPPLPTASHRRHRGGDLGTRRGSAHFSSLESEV
# T1 sequence (Q00961 20-1237, other chains not shown): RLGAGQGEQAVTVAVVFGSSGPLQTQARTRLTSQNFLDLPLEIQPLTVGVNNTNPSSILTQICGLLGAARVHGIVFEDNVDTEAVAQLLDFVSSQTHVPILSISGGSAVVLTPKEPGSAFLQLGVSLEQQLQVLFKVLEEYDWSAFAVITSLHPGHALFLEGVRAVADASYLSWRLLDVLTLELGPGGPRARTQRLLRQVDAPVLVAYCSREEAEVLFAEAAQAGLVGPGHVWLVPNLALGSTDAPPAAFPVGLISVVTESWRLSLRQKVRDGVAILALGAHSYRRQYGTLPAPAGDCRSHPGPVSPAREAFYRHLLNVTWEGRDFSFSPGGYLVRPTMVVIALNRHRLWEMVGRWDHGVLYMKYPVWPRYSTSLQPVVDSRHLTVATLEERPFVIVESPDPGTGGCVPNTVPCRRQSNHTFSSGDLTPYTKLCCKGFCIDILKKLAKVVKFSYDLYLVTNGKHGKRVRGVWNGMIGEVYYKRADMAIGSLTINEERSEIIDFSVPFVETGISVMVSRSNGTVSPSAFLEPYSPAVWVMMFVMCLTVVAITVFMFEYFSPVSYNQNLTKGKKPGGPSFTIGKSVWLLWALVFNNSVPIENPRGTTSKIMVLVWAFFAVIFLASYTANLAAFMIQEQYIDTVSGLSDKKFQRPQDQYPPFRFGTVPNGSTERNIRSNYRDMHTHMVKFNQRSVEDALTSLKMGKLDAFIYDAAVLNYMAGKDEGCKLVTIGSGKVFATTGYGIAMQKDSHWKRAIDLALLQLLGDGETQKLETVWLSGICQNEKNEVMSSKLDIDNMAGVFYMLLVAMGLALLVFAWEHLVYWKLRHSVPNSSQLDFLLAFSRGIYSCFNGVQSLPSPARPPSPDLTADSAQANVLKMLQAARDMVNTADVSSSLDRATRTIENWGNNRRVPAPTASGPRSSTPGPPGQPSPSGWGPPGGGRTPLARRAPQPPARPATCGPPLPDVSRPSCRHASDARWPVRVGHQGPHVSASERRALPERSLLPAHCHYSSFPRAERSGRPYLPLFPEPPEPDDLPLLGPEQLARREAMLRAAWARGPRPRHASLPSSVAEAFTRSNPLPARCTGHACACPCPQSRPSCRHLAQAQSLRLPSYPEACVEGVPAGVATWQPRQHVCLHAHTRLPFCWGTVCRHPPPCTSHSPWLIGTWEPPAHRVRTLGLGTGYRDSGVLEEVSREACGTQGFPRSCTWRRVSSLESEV
# Sequence of NR1/NR2C receptors (Rattus norvegicus, UniProt P35439+Q00961) (Q00961 20-1237, other chains not shown): as above
compound,measurement,setting,value
"NCC(=O)O [Glycine, reference compound]",Slope,NR1/NR2C receptors [1],1.5
same,Slope,NR1/NR2D receptors [2],1.5
"COc1ccc(OCC2c3cc(OC)c(OC)cc3CCN2C(=O)c2cccc(Cl)c2)cc1 (stereo not drawn) [CIQ, (3-chlorophenyl)(6,7-dimethoxy-1-((4-methoxyphenoxy)methyl)-3,4-dihydroisoquinolin-2(1H)-yl)methanone]",response in the presence of CIQ vs control,NR1/NR2C receptors [1]; [28],significantly different than in control
same,potentiation of NMDA-activated response,NR1/NR2C receptors [1]; 100 μM NMDA and 30 μM glycine,233 ± 13%
same,effect of CIQ alone (no agonist),NR1/NR2C receptors [1]; CIQ alone,no effect
same,maximal potentiation,NR1/NR2C receptors [1]; response without CIQ = 100%,197 ± 20%
same,response in the presence of CIQ vs control,NR1/NR2D receptors [2]; [28],significantly different than in control
same,potentiation of NMDA-activated response,NR1/NR2D receptors [2]; 100 μM NMDA and 30 μM glycine,205 ± 5%
same,effect of CIQ alone (no agonist),NR1/NR2D receptors [2]; CIQ alone,no effect
same,"potentiation of receptor response, % of control","NR1/NR2D receptors [2]; CIQ dissolved in 2-hydroxypropyl-beta-cyclodextrin solution (1% w/v), no DMSO",144 ± 3 % of control
same,maximal potentiation,NR1/NR2D receptors [2]; response without CIQ = 100%,211 ± 7%
same,effect on receptor response,NR1/NR2A receptors [3]; 10 μM CIQ,did not alter; also recorded: without affecting
same,potentiation of NMDA-activated response,NR1/NR2A receptors [3]; 100 μM NMDA plus 30 μM glycine,did not potentiate
same,effect on receptor response,NR1/NR2B receptors [4]; 10 μM CIQ,did not alter; also recorded: without affecting
same,potentiation of NMDA-activated response,NR1/NR2B receptors [4]; 100 μM NMDA plus 30 μM glycine,did not potentiate
same,effect on receptor response,AMPA (GluR1) receptor,did not alter; also recorded: not significantly different than control
same,effect on receptor response,GluR2 receptor,not significantly different than control
same,effect on receptor response,GluR3 receptor,not significantly different than control
same,effect on receptor response,GluR4 receptor,not significantly different than control
same,effect on receptor response,GluR5 receptor,not significantly different than control
same,effect on receptor response,kainate (GluR6) receptor,did not alter; also recorded: not significantly different than control
same,EC50,NR1/NR2C receptors [5],1700 nM
same,response compared to control,NR1/NR2C receptors [6]; [29],180%
same,maximal potentiation,NR1/NR2C receptors [6]; HEK 293 cells,180%
same,de-potentiation time constant tau,NR1/NR2C receptors [6]; [30],4.0 ± 0.7 s
same,10-90% rise time of receptor response,NR1/NR2C receptors [6]; [31],9 ± 1 ms
same,response compared to control,NR1/NR2D receptors [7]; [29],180%
same,potentiation of response to NMDA at 33°C,"NR1/NR2D receptors [7]; 10 μM CIQ, 33°C, HEK 293 cells",200±20%
same,maximal potentiation,NR1/NR2D receptors [7]; HEK 293 cells,180%
same,de-potentiation time constant tau,NR1/NR2D receptors [7]; [30],6.5 ± 0.7 s
same,10-90% rise time of receptor response,NR1/NR2D receptors [7]; [31],15 ± 2 ms
same,effect on receptor response,NR1/NR2A receptors [8],no effect
same,reduction in the response,NR1/NR2B receptors [9],25%
same,effect on the reversal potential,NR1/NR2D receptors [10],no detectable effect
same,"mean shut time, % of control",NR1/NR2D receptors [10],75 ± 8 % of control
same,"closed duration area, component 1",NR1/NR2D receptors [10]; composite of 6 patches,37
same,"closed duration area, component 2",NR1/NR2D receptors [10]; composite of 6 patches,18
same,"closed duration area, component 3",NR1/NR2D receptors [10]; composite of 6 patches,12
same,"closed duration area, component 4",NR1/NR2D receptors [10]; composite of 6 patches,18
same,"closed duration area, component 5",NR1/NR2D receptors [10]; composite of 6 patches,15
same,"closed duration area, component 6",NR1/NR2D receptors [10]; composite of 6 patches,0.75
same,"closed duration time constant, component 1",NR1/NR2D receptors [10]; composite of 6 patches,0.026 ms
same,"closed duration time constant, component 2",NR1/NR2D receptors [10]; composite of 6 patches,0.23 ms
same,"closed duration time constant, component 3",NR1/NR2D receptors [10]; composite of 6 patches,0.73 ms
same,"closed duration time constant, component 4",NR1/NR2D receptors [10]; composite of 6 patches,3.4 ms
same,"closed duration time constant, component 5",NR1/NR2D receptors [10]; composite of 6 patches,12 ms
same,"closed duration time constant, component 6",NR1/NR2D receptors [10]; composite of 6 patches,39 ms
same,"open period time constant 1, composite distribution",NR1/NR2D receptors [10]; composite of 6 patches,0.036 ms
same,"open period time constant 2, composite distribution",NR1/NR2D receptors [10]; composite of 6 patches,0.63 ms
same,CIQ sensitivity of chimeric receptor,[11],potentiated; also recorded: CIQ sensitivity is observed
same,CIQ activity at chimeric receptor,[12],did not show any activity
same,CIQ activity at chimeric receptor,[13],did not show any activity
same,change of CIQ potentiation vs NR2D,[14],did not significantly alter
same,change of CIQ potentiation vs NR2D,[15],attenuated; also recorded: reduced level of potentiation
same,CIQ potentiation of mutant receptor,NR1/NR2D(T592I),completely abolished; also recorded: no longer potentiated
same,potentiation of mutant receptor response,[16],135 ± 5%
same,potentiation of NMDA-activated responses compared to control,"[17]; 20 μM CIQ bath applied, −60 mV, 0.2 mM Mg2+",230 ± 29%
same,"NMDA-activated response after wash, of control amplitude",[17]; after washout of 20 μM CIQ,102 ± 11%
same,potentiation of NMDA-activated responses,[18],did not potentiate
same,solubility,[19],20 µM
same,EC50,[20],3000 nM
same,CIQ sensitivity of chimeric receptor,[21],CIQ sensitivity is observed
same,CIQ sensitivity of chimeric receptor,[22],CIQ sensitivity is observed
same,CIQ sensitivity of chimeric receptor,[23],CIQ sensitivity is observed
same,CIQ sensitivity of chimeric receptor,[24],CIQ sensitivity is observed
same,effect on receptor response,NR1/NR2A* receptors,no detectable effect; also recorded: not potentiated
same,effect on triheteromeric receptor response,[25],not potentiated; also recorded: no effect
same,effect on triheteromeric receptor response,[26],significantly potentiated
same,effect on triheteromeric receptor response,[27],significantly potentiated
"N[C@@H](CCC(=O)O)C(=O)O [Glutamate, reference compound]",Slope,NR1/NR2C receptors [1],1.5
same,EC50,NR1/NR2C receptors [1]; [32],620 ± 40 nM
same,EC50,NR1/NR2C receptors [1]; [33],740 ± 60 nM
same,Slope,NR1/NR2D receptors [2],1.5
same,EC50,NR1/NR2D receptors [2]; [32],240 ± 20 nM
same,EC50,NR1/NR2D receptors [2]; [33],300 ± 30 nM
